Consider six molecules from US20060286574A1 (priority 2005, published 2006).

Assay [1] deals with E. coli. Format: cell-based. Particulars: for enhancement of the activity of ciprofloxacin: at 25 μM.
Assay [2] relates to E. coli ΔrecB strains. Format: cell-based. The settings on record: putative ΔrecB transductants and parental ΔrecB strain.
The subject of assay [3] is E. coli.
For assay [4], the system named is K. pneumoniae. Format: in vivo. Particulars: mice; wild type vs ΔrecB K. pneumoniae; 0.064-15 mg/kg/day ciprofloxacin; 48 hour endpoint; FIG. 6.
Assay [5] deals with P. aeruginosa. Description: Effect of gam expression on ciprofloxacin efficacy in P. aeruginosa. Format: cell-based.
Assay [6] deals with E. coli. As to the kind of experiment: Effect of gam expression on ciprofloxacin efficacy in E. coli. Format: cell-based.

As to `Cn1c2ccccc2n2c3ncccc3c(=O)c(C#N)c12` [Formula IIb], the “enhancement of the activity of ciprofloxacin” value in assay [1] is “enhanced the activity of ciprofloxacin”.
In the case of `CO[C@@]12[C@H](COC(N)=O)C3=C(C(=O)C(C)=C(N)C3=O)N1C[C@@H]1N[C@@H]12` [Mitomycin C], in assay [2], the “Mitomycin C MIC of ΔrecB strains, lower compared to recB+ strains” value is listed as “about 8 fold”.
`Cn1c2ccccc2n2c3cnccc3c(=O)c(C#N)c12` [Formula IIc]: the “enhancement of the activity of ciprofloxacin” value in assay [1] is recorded as “enhanced the activity of ciprofloxacin”.
`Nc1ccc2noc3c2c1C(=O)c1ccccc1-3` [Formula Ia]: the “MIC shift in ciprofloxacin responsiveness” value in assay [1] amounted to 10 ×.
Molecule `O=C(O)c1cn(C2CC2)c2cc(N3CCNCC3)c(F)cc2c1=O` [ciprofloxacin] gave a cells killed in assay [3] of 99%. For the same molecule, the “reduction in CFU in thigh (log CFU/gm of thigh)” value in assay [4] was “significantly greater reduction in CFU for the recB mutants relative to the wild type strain”.

B1: lambda gam: protein used by λ phage to inhibit E. coli RecB; overexpressed from an arabinose-inducible vector (protein, UniProt P03702 1-138, looked up)
Host-nuclease inhibitor …: MDINTETEIKQKHSLTPFPVFLISPAFRGRYFHSYFRSSAMNAYYIQDRLEAQSWARHYQQLAREEKEAELADDMEKGLPQHLFESLCIDHLQRHGASKKSITRAFDDDVEFQERMAEHIRYMVETIAHHQVDIDSEV
Regarding B1, the “effect of lambda gam overexpression on ciprofloxacin sensitivity” value in assay [5] (strain lacking the RecB target (RTC1019) relative to empty vector strain (RTC1016)) and in assay [6] (strain lacking the RecB target (RTC0148) relative to empty vector strain (RTC0147)) was “no effect” each time. Besides, in assay [5] (wild-type P. aeruginosa (RTC1017) and gyrA(S831) mutant (RTC1018) relative to empty vector controls (RTC1014, RTC1015)), the “decrease in the ciprofloxacin MIC on overexpression of lambda gam” value is recorded as 2-4 fold. In addition, in assay [6] (wild-type E. coli (RTC0142) and gyrA(S83L) (RTC0144) relative to empty vector controls (RTC0141, RTC0143)), the “decrease in the ciprofloxacin IC50 on overexpression of lambda gam” value is 5-8 fold.
